Reference: PubChem BioAssay AID330 (DTP/NCI, 2004)
Values joined by “and” are separate entries in the source; they are usually repeats but may differ in a detail not shown here. Equal entries are not always repeated. Inconclusive results and toxic doses are left out. Square brackets hold non-standard residues; d marks the D form. Peptide text beside a SMILES is read from it. ξ: configuration not given here. ξNle = CCCCC(N)C(=O)O

Tested on: P388 leukemia ip, CD2F1 mice, survival T/C
Assay: NCI In Vivo Anticancer Drug Screen. Data for tumor model P388 Leukemia (intraperitoneal) in CD2F1 (CDF1) mice
Conditions: endpoint: median survival time, higher = longer survival
Method in brief: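 Mice carrying the transplanted tumor received test compound or vehicle. Survival was recorded in each group, and the value is the treated-group measurement divided by that of the vehicle-treated control group.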

[1] = dose: 100.0 mg/kg/injection, schedule: Q01DX001 (ip), vehicle: saline with Tween-80
[2] = dose: 200.0 mg/kg/injection, schedule: Q01DX001 (ip), vehicle: saline with Tween-80
[3] = dose: 60.0 mg/kg/injection, schedule: Q01DX005 (ip), vehicle: Klucel (hydroxypropylcellulose) (HPC)
[4] = dose: 120.0 mg/kg/injection, schedule: Q01DX005 (ip), vehicle: Klucel (hydroxypropylcellulose) (HPC)
[5] = dose: 240.0 mg/kg/injection, schedule: Q01DX005 (ip), vehicle: Klucel (hydroxypropylcellulose) (HPC)
[6] = dose: 50.0 mg/kg/injection, schedule: Q01DX005 (ip), vehicle: saline with Tween-80
[7] = dose: 100.0 mg/kg/injection, schedule: Q01DX005 (ip), vehicle: saline with Tween-80
[8] = dose: 50.0 mg/kg/injection, schedule: Q01DX005 (ip), vehicle: Klucel (hydroxypropylcellulose) (HPC)
[9] = dose: 100.0 mg/kg/injection, schedule: Q01DX005 (ip), vehicle: Klucel (hydroxypropylcellulose) (HPC)
[10] = dose: 200.0 mg/kg/injection, schedule: Q01DX005 (ip), vehicle: Klucel (hydroxypropylcellulose) (HPC)
[11] = dose: 60.0 mg/kg/injection, schedule: Q01DX005 (ip), vehicle: saline with Tween-80
[12] = dose: 120.0 mg/kg/injection, schedule: Q01DX005 (ip), vehicle: saline with Tween-80

Question: What does the source list for `CCCCNCCCNCCCNC(=O)c1csc(-c2csc(CCNC(=O)C(NC(=O)C(C)C(O)C(C)NC(=O)C(NC(=O)c3nc(C(CC(N)=O)NCC(N)C(N)=O)nc(N)c3C)C(OC3OC(CO)C(O)C(O)C3OC3OC(CO)C(O)C(OC(N)=O)C3O)c3cnc[nH]3)C(C)O)n2)n1` (configuration not stated)?
Answer: T/C (dose: 0.62 mg/kg/injection, schedule: Q01DX009 (ip), vehicle: water): 104 % of control and 105 % of control; T/C (dose: 1.25 mg/kg/injection, schedule: Q01DX009 (ip), vehicle: water): 104 % of control and 105 % of control; T/C (dose: 2.5 mg/kg/injection, schedule: Q01DX009 (ip), vehicle: water): 104 % of control and 110 % of control and 117 % of control; T/C (dose: 5.0 mg/kg/injection, schedule: Q01DX009 (ip), vehicle: water): 108 % of control and 117 % of control and 120 % of control; T/C (dose: 10.0 mg/kg/injection, schedule: Q01DX009 (ip), vehicle: water): 104 % of control; T/C (dose: 20.0 mg/kg/injection, schedule: Q01DX009 (ip), vehicle: water): 105 % of control; T/C (dose: 40.0 mg/kg/injection, schedule: Q01DX009 (ip), vehicle: water): 89 % of control

Question: `O=C1C=C(Nc2ncccn2)c2ccccc2C1=O` was tested. Which T/C (dose: 6.25 mg/kg/injection, schedule: Q01DX005 (ip), vehicle: Klucel + Tween-80) did it give?
Answer: 115 % of control

Question: And the T/C (dose: 12.5 mg/kg/injection, schedule: Q01DX005 (ip), vehicle: Klucel + Tween-80)?
Answer: 98 % of control

Question: What about the T/C (dose: 25.0 mg/kg/injection, schedule: Q01DX005 (ip), vehicle: Klucel + Tween-80) of the same molecule?
Answer: 104 % of control

Question: How did the T/C (dose: 50.0 mg/kg/injection, schedule: Q01DX009 (ip), vehicle: saline) turn out when `CC(=O)NC(CS)C(=O)O` (configuration not stated) was run?
Answer: 111 % of control and 88 % of control

Question: What about the T/C (dose: 100.0 mg/kg/injection, schedule: Q01DX009 (ip), vehicle: saline) of the same molecule?
Answer: 103 % of control and 104 % of control and 111 % of control

Question: What about the T/C (dose: 200.0 mg/kg/injection, schedule: Q01DX009 (ip), vehicle: saline) of the same molecule?
Answer: 99 % of control (2×) and 109 % of control

Question: Which results are given for `CCOC(=O)C(C#N)c1cc(O)c(O)c2ccc(O)cc12` (configuration not stated)?
Answer: T/C [1]: 97 % of control; T/C [2]: 107 % of control; T/C (dose: 400.0 mg/kg/injection, schedule: Q01DX001 (ip), vehicle: saline with Tween-80): 106 % of control

Question: For `CCCC#CC#N`, which T/C (dose: 50.0 mg/kg/injection, schedule: Q01DX009 (ip), vehicle: olive oil, sesame oil, peanut oil) is on record?
Answer: 116 % of control

Question: With `C(=C\c1cc2ccc(C3=NCCN3)cc2[nH]1)/c1ccc(Oc2ccc(C3=NCCN3)cc2)cc1` as the molecule, how does the T/C (dose: 3.12 mg/kg/injection, schedule: Q04DX003 (ip), vehicle: saline) read?
Answer: 108 % of control

Question: And the T/C (dose: 6.25 mg/kg/injection, schedule: Q04DX003 (ip), vehicle: saline)?
Answer: 103 % of control

Question: And the T/C (dose: 12.5 mg/kg/injection, schedule: Q04DX003 (ip), vehicle: saline)?
Answer: 111 % of control

Question: What about the T/C (dose: 25.0 mg/kg/injection, schedule: Q04DX003 (ip), vehicle: saline) of the same molecule?
Answer: 120 % of control

Question: How did the T/C (dose: 50.0 mg/kg/injection, schedule: Q01DX005 (ip), vehicle: other) turn out when `C/C(=C\C(=O)c1ccc(F)cc1)N1CCN(c2ccc(F)cc2)CC1` was run?
Answer: 96 % of control

Question: What about the T/C (dose: 100.0 mg/kg/injection, schedule: Q01DX005 (ip), vehicle: other) of the same molecule?
Answer: 93 % of control

Question: `Cc1ccc(S(=O)(=O)C23N=NC(C)(C)C2N=NC3(C)C)cc1` (configuration not stated) was tested. Which T/C [3] did it give?
Answer: 101 % of control

Question: What about the T/C [4] of the same molecule?
Answer: 100 % of control

Question: And the T/C [5]?
Answer: 98 % of control

Question: What does the source list for `CC(C)C(N)C(=O)NN` (configuration not stated)?
Answer: T/C (dose: 50.0 mg/kg/injection, schedule: Q01DX005 (ip), vehicle: saline): 110 % of control; T/C (dose: 100.0 mg/kg/injection, schedule: Q01DX005 (ip), vehicle: saline): 105 % of control; T/C (dose: 200.0 mg/kg/injection, schedule: Q01DX005 (ip), vehicle: saline): 110 % of control

Question: Which results are given for `CC(=O)OCC12CCC(C)=CC1O[C@H]1[C@@H](OC(C)=O)[C@H](OC(C)=O)[C@]2(C)[C@@]12CO2` (some centres not stated)?
Answer: T/C (dose: 0.2 mg/kg/injection, schedule: Q01DX009 (ip), vehicle: saline + alcohol): 115 % of control; T/C (dose: 0.8 mg/kg/injection, schedule: Q01DX009 (ip), vehicle: saline + alcohol): 173 % of control; T/C (dose: 2.0 mg/kg/injection, schedule: Q04DX003 (ip), vehicle: saline + alcohol): 120 % of control

Question: `C(CCc1nn[nH]n1)CCC1CCCCC1` was tested. Which T/C [6] did it give?
Answer: 96 % of control

Question: What about the T/C [7] of the same molecule?
Answer: 107 % of control

Question: What does the source list for `Cc1cc(N/N=C/c2ccc(Br)cc2)c2cc3c(cc2n1)OCO3`?
Answer: T/C [8]: 94 % of control; T/C [9]: 96 % of control; T/C [10]: 96 % of control

Question: How did the T/C (dose: 100.0 mg/kg/injection, schedule: Q04DX003 (ip), vehicle: saline) turn out when `O=C(CCS(=O)(=O)CCC(=O)C(c1ccccc1)c1ccccc1)C(c1ccccc1)c1ccccc1` was run?
Answer: 97 % of control

Question: And the T/C (dose: 200.0 mg/kg/injection, schedule: Q04DX003 (ip), vehicle: saline)?
Answer: 94 % of control

Question: And the T/C (dose: 400.0 mg/kg/injection, schedule: Q04DX003 (ip), vehicle: saline)?
Answer: 90 % of control

Question: `CC(C)[C@H](C)C(=O)C1OCOC(C2CC(=O)NC(=O)C2)[C@@H]1O` (some centres not stated) was tested. Which T/C (dose: 0.01 mg/kg/injection, schedule: Q01DX009 (ip), vehicle: distilled water + alcohol) did it give?
Answer: 102 % of control

Question: What about the T/C (dose: 0.03 mg/kg/injection, schedule: Q01DX009 (ip), vehicle: distilled water + alcohol) of the same molecule?
Answer: 109 % of control

Question: And the T/C (dose: 0.06 mg/kg/injection, schedule: Q01DX009 (ip), vehicle: distilled water + alcohol)?
Answer: 109 % of control

Question: What about the T/C (dose: 0.12 mg/kg/injection, schedule: Q01DX009 (ip), vehicle: distilled water + alcohol) of the same molecule?
Answer: 100 % of control

Question: With `CN(C)c1noc2c1c(=O)n(C)c(=O)n2C` as the molecule, how does the T/C (dose: 60.0 mg/kg/injection, schedule: Q01DX005 (ip), vehicle: saline) read?
Answer: 105 % of control

Question: And the T/C (dose: 120.0 mg/kg/injection, schedule: Q01DX005 (ip), vehicle: saline)?
Answer: 100 % of control

Question: And the T/C (dose: 240.0 mg/kg/injection, schedule: Q01DX005 (ip), vehicle: saline)?
Answer: 99 % of control

Question: `NCCN1C(=O)C2C3CCC(O3)C2C1=O` (configuration not stated) was tested. Which T/C [11] did it give?
Answer: 96 % of control

Question: And the T/C [12]?
Answer: 98 % of control

Question: And the T/C (dose: 240.0 mg/kg/injection, schedule: Q01DX005 (ip), vehicle: saline with Tween-80)?
Answer: 107 % of control

Question: Which results are given for `N#C/C(=C\Nc1ccccn1)C(=O)c1ccco1`?
Answer: T/C [11]: 91 % of control; T/C [12]: 100 % of control

Question: How did the T/C (dose: 60.0 mg/kg/injection, schedule: Q01DX005 (ip), vehicle: Klucel + Tween-80) turn out when `CCOc1c(N=Nc2ccc(OC)cc2)c(C)nn1C(=S)SC` was run?
Answer: 92 % of control

Question: And the T/C (dose: 120.0 mg/kg/injection, schedule: Q01DX005 (ip), vehicle: Klucel + Tween-80)?
Answer: 92 % of control

Question: And the T/C (dose: 240.0 mg/kg/injection, schedule: Q01DX005 (ip), vehicle: Klucel + Tween-80)?
Answer: 89 % of control

Question: With `C=C1CCN(c2ccc(Br)cc2)C1=O` as the molecule, how does the T/C (dose: 4.0 mg/kg/injection, schedule: Q01DX009 (ip), vehicle: saline + alcohol) read?
Answer: 104 % of control

Question: And the T/C (dose: 8.0 mg/kg/injection, schedule: Q01DX009 (ip), vehicle: saline + alcohol)?
Answer: 92 % of control

Question: What about the T/C (dose: 16.0 mg/kg/injection, schedule: Q01DX009 (ip), vehicle: saline + alcohol) of the same molecule?
Answer: 98 % of control

Question: What about the T/C (dose: 32.0 mg/kg/injection, schedule: Q01DX009 (ip), vehicle: saline + alcohol) of the same molecule?
Answer: 91 % of control

Question: What about the T/C (dose: 64.0 mg/kg/injection, schedule: Q01DX009 (ip), vehicle: saline + alcohol) of the same molecule?
Answer: 98 % of control

Question: `O=P1(Oc2ccc(N=C=S)cc2)OCCCO1` was tested. Which T/C [3] did it give?
Answer: 102 % of control

Question: What about the T/C [4] of the same molecule?
Answer: 103 % of control

Question: What about the T/C [5] of the same molecule?
Answer: 104 % of control

Question: How did the T/C [6] turn out when `CCCCC(NC(=O)CNC(=O)CN)C(=O)O` (stereo not drawn) (H-Gly-Gly-[ξNle]-OH) was run?
Answer: 94 % of control

Question: And the T/C [7]?
Answer: 94 % of control

Question: What about the T/C (dose: 200.0 mg/kg/injection, schedule: Q01DX005 (ip), vehicle: saline with Tween-80) of the same molecule?
Answer: 93 % of control

Question: For `COc1cc2c(cc1OC)C(=O)Nc1nc(N)nc(N)c1C2`, which T/C [1] is on record?
Answer: 108 % of control

Question: And the T/C [2]?
Answer: 119 % of control

Question: What does the source list for `Cc1ccc2c(c1)C=CC(C#N)N2C(=O)OCc1ccccc1` (configuration not stated)?
Answer: T/C (dose: 100.0 mg/kg/injection, schedule: Q04DX003 (ip), vehicle: saline with Tween-80): 90 % of control; T/C (dose: 200.0 mg/kg/injection, schedule: Q04DX003 (ip), vehicle: saline with Tween-80): 95 % of control

Question: Which results are given for `COCN(C)N=Nc1ccc(C(C)=O)cc1`?
Answer: T/C [8]: 100 % of control; T/C [9]: 104 % of control; T/C [10]: 121 % of control

Question: Which T/C (dose: 1.25 mg/kg/injection, schedule: Q01DX009 (ip), vehicle: saline) does the source give for `Cn1cc(CCc2cc[n+](CCC[N+](C)(C)C)cc2)c2ccccc21` here?
Answer: 101 % of control

Question: What about the T/C (dose: 2.5 mg/kg/injection, schedule: Q01DX009 (ip), vehicle: saline) of the same molecule?
Answer: 105 % of control

Question: What about the T/C (dose: 5.0 mg/kg/injection, schedule: Q01DX009 (ip), vehicle: saline) of the same molecule?
Answer: 109 % of control

Question: And the T/C (dose: 10.0 mg/kg/injection, schedule: Q01DX009 (ip), vehicle: saline)?
Answer: 108 % of control
